Data: patent US9238011B2, “Compositions, methods and kits for therapeutic treatment with wet spun microstructures” (Brown University, priority 2012, dated 2016)
In brackets after ≈: the same amount, converted by molar mass.

Assay: Solubility of DXM in the 6:1 (v/v) DCM to THF spin dope co-solvent
Type: physicochemical
Conditions: 6:1 (v/v) DCM to THF co-solvent (spin dope), organic solvent or mixture; 6:1 (v/v) DCM to THF with PLLA; read-out: maximum solubility in co-solvent solution
Experimental: PLLA (7.5% w/v), DXM-loaded (1.0%, 2.4%, 4.8% w/w) and unloaded (0% w/w) microfibers were wet spun by phase inversion. PLLA (526.9±0.3 mg) was dissolved in a co-solvent ratio of 6:1 (v/v) DCM to THF. […] The addition of THF was necessary to increase DXM solubility within the spin dope. The polymer/drug solution was loaded into a 5 mL syringe fitted with a 22-gauge spinneret and placed in a syringe pump with a solution flow rate of 0.06 mL/min. […] A rotating mandrel placed above the spin bath was used to collect microfibers for further analysis. Each formulation in Examples herein was characterized from multiple regions of meter-long microfiber bundles spun at the same time from one spin dope solution.

- solubility: ~3600 µg/mL (≈ 9.17 mM)
SMILES: C[C@@H]1C[C@H]2[C@@H]3CCC4=CC(=O)C=C[C@]4(C)[C@@]3(F)[C@@H](O)C[C@]2(C)[C@@]1(O)C(=O)CO [DXM, Dexamethasone]
